Source: patent publication US6448269B1 (Eli Lilly and Company, priority 1993, dated 2002)
pIC50: −log10 of the molar value. Structures can show the parent of a compound that is named as a salt.

Tests used:
GPIIb-IIIa = molecular target: T1, GPIIb-IIIa (Homo sapiens, UniProt P05106+P08514); experiment: ELISA IIb-IIIa assay (fibrinogen binding to immobilized GPIIb-IIIa); conditions: purified platelet GPIIb-IIIa receptor coated on ELISA plates; biotin-labeled fibrinogen 10 nM, 3 hours at 25° C.
T1 construct: Purified platelet GPIIb-IIIa receptor was prepared as described by Fitzgerald; from tissue; host or cells: platelets
T1 sequence (P08514 32-887 limits assumed): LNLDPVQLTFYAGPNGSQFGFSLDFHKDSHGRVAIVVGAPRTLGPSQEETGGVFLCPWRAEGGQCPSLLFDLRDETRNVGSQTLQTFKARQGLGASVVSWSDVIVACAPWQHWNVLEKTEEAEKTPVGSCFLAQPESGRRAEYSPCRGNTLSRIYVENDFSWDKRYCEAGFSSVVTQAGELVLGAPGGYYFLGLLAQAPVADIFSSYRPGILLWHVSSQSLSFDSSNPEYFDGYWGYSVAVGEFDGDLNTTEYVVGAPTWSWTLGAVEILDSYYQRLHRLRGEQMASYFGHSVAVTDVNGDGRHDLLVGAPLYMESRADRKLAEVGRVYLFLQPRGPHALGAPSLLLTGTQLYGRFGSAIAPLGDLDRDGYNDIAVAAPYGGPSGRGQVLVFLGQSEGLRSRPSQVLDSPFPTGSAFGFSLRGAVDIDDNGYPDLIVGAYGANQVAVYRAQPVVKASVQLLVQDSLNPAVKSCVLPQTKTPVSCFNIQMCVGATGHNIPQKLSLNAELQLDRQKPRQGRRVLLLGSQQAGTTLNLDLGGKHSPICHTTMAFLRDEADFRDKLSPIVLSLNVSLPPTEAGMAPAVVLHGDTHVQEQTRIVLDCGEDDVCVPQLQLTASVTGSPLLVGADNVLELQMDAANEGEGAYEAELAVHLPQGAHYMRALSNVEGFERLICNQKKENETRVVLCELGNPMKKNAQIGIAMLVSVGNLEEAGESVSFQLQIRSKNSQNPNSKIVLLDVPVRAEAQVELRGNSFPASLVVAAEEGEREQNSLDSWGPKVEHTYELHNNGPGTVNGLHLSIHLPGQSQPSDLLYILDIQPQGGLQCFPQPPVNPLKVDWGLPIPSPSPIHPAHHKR
T1 sequence (P05106 27-788): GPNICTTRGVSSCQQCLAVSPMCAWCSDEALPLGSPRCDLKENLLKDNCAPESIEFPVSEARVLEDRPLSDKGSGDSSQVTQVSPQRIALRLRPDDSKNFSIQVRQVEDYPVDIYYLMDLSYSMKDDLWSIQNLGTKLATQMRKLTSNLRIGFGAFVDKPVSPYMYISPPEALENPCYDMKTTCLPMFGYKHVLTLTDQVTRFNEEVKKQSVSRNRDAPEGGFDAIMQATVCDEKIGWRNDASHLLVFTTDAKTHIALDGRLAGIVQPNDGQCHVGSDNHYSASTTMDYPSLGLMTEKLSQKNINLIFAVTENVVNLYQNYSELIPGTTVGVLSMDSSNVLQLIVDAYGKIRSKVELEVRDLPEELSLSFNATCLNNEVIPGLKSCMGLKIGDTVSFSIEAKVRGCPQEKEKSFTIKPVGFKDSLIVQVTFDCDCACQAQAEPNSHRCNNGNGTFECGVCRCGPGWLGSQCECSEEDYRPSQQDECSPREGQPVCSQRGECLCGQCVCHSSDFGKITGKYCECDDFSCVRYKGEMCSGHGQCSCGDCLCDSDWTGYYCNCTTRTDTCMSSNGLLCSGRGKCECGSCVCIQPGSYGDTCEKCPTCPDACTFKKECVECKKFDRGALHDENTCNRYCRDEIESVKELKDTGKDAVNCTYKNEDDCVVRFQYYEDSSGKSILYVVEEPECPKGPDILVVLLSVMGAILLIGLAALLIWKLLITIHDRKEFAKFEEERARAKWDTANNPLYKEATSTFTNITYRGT
Protocol: In the following assay, GPIIb-IIIa is prepared in purified form, by a method such as described by Fitzgerald, L. A., et al., Anal Biochem (1985) 151:169-177, (the disclosure of which is incorporated herein by reference). GPIIb-IIIa is coated onto microtiter plates. The coated support is then contacted with fibrinogen and with the test material (e.g., compounds of Formula I) and incubated for a sufficient time to permit maximal binding of fibrinogen to the immobilized GPIIb-IIIa. Fibrinogen is typically provided at a concentration of about 5-50 nM and the test material can, if desired, be added at a series of dilution. Typical incubations are 2 to 4 hours at 25° C., the time and temperature being interdependent.
After incubation, the solution containing the fibrinogen and test material is removed and the level of binding of fibrinogen measured by quantitating bound fibrinogen to GPIIb-IIIa. Any suitable means of detection may be used, but it is convenient to employ labeled fibrinogen, for example using biotinylated labels. Such methods are well known in the art.
Purified platelet GPIIb-IIIa receptor was prepared as described by Fitzgerald, L. A., et al., Anal Biochem (1985) 151:169-177 (1985). Vitronectin receptor was prepared as described by Smith, J. W., J. Biol Chem (1988) 263:18726-18731. After purification, the receptors were stored in 0.1% Triton X-100 at 0.1-1.0 mg/ml.
The receptors were coated to the wells of 96-well flat-bottom ELISA plates (Linbro EIA-Plus microtiter plate, Flow Laboratories) after diluting 1:200 with a solution of 20 mM Tris-HCl, 150 mM NaCl, 1 mM CaCl2, pH 7.4, to reduce the Triton X-100 concentration to below its critical micellar concentration and adding an aliquot of 100 ul to each well. The wells were all allowed to incubate overnight at 4° C., and then aspirated to dryness. Additional sites were blocked by the addition of bovine serum albumin (BSA) at 35 mg/ml in the above buffer for 2 hours at 30° C. to prevent nonspecific binding. The wells were then washed once with binding buffer ([…] Tris-HCl, 100 mM NaCl 2 mM CaCl2, 1 mg/ml BSA).
The corresponding ligands (fibrinogen, von Willebrand Factor, or vitronectin) were conjugated to biotin using commercially available reagents and standard protocols. The labeled ligands were added to the receptor-coated wells at final concentration of 10 nM (100 ul/well) and incubated for 3 hours at 25° C. in the presence or absence of the test samples. After incubation, the wells are aspirated to dryness and bound ligand is quantitated.
The bound protein is detected by the addition of antibiotin antibody conjugated to alkaline phosphatase followed by addition of substrate (p-nitrophenyl phosphate), and determination of the optical density of each well at […]. Decreased color development is observed in wells incubated with test samples which inhibit binding of ligand to receptor.

[1] = test system: human platelet-rich plasma; experiment: Platelet aggregation assay (Aggregation-Human PRP/ADP); format: cell-based; conditions: 1 min; human platelet-rich plasma incubated with compound 1 minute at 37° C.; ADP-induced aggregation; read-out: Agg: Human PRP/ADP IC50uM
Procedure, shortened: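 Citrated human PRP (~200-400,000 platelets/μl) from healthy volunteers, stirred, incubated with compound 1 min at 37° C. Aggregation was then triggered, most often by ADP 5 μM, or by 1 μg/ml collagen, 1 μM U46619 or 0.3 μM platelet activating factor, and read in an aggregometer with platelet-poor plasma as reference.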

Row | SMILES | pIC50 (GPIIb-IIIa) | pIC50 [1]
1 | CCOCCCC(CC(=O)O)N1CCc2cc(OCc3ccc(C(=N)N)cc3)ccc2C1=O (racemic) [Example 10, (+−)-6-[[4-(Aminoiminomethyl)phenyl]methoxy]-b-(3-ethoxypropyl)-3,4-dihydro-1-oxo-2(1H)-isoquinoline Propanoic Acid Trifluoroacetate] | 7.21 | 6.33
2 | CCNC(=N)c1ccc(C(=O)Nc2ccc3c(c2)CCC(CC(=O)O)O3)cc1 (racemic) [Example 72, rac-(3,4-Dihydro-6-(N-(4-((ethylamino)iminomethyl)benzoyl)amino)-2H-1-benzopyran-2-yl)acetic Acid] | 7.73 | 6.55
3 | CCOC(=O)CC1CCc2cc(NC(=O)c3ccc(NC(=N)N)cc3)ccc2O1 (racemic) [Example 64, Ethyl rac-(6-(N-(4-((Aminoiminomethyl)amino)benzoyl)amino)-3,4-dihydro-2H-1-benzopyran-2-yl)acetate] | 6.10 | 4.96
4 | N=C(N)c1ccc(COc2ccc3c(c2)CCN(CC(=O)O)C3=O)cc1 [Example 1, 6-[[4-(Aminoiminomethyl)phenyl]methoxy]-3,4-dihydro-1-oxo-2(1H)-isoquinoline Acetic Acid Trifluoroacetate] | 6.22 | 4.70
5 | CC1(CCCCCCCCC(=O)O)C=Cc2cc(C(=N)N)ccc2O1 (racemic) [Example 60, rac-9-(6-Aminoiminomethyl-2-methyl-2H-1-benzopyran-2-yl)nonanoic Acid] | 5.74 | < 5.00
6 | N=C(N)Nc1ccc(C(=O)Nc2ccc3c(c2)CCC(CC(=O)O)O3)cc1 (racemic) [Example 65, rac-(6-(N-(4-((Aminoiminomethyl)amino)benzoyl)amino)-3,4-dihydro-2H-1-benzopyran-2-yl)acetic Acid] | 6.74 | 5.32
7 | CCOC(=O)CC1CCc2cc(NC(=O)c3ccc(C(=N)N)cc3F)ccc2O1 (racemic) [Example 69, Ethyl rac-(6-(N-(4-(Aminoiminomethyl)-2-fluorobenzoyl)amino)-3,4-dihydro-2H-1-benzopyran-2-yl)acetate Hydrochloride] | 8.05 | 6.80
8 | CNC(=O)C(CC(=O)O)N1CCc2cc(OCc3ccc(C(=N)N)cc3)ccc2C1=O (racemic) [Example 8, (+−)-6-[[4-(Aminoiminomethyl)phenyl]methoxy]-3,4-dihydro-beta-[(methylamino)carbonyl]-1-oxo-2(1H)-isoquinoline Propanoic Acid Trifluoroacetate] | 7.10 | 6.26
9 | N=C(N)c1ccc(C(=O)Nc2ccc3c(c2)CCC(/C=C/C(=O)O)C3)cc1 (stereo not drawn) [Example 37] | 7.00 | 5.36
10 | O=C(O)CN1CCc2cc(OCCCC3CCNCC3)ccc2C1 [Example 34] | 6.66 | 5.64
11 | N=C(N)c1ccc(COc2ccc3c(c2)CCC(OCC(=O)O)C3)cc1 (stereo not drawn) [Example 23] | 6.72 | 4.60
12 | CCNC(=N)c1ccc(C(=O)Nc2ccc3c(c2)CCC(CC(=O)OCC)O3)cc1 (racemic) [Example 71, Hydrochloride] | < 5.00 | 5.82
13 | O=C(O)COC1CCc2cc(OCCCC3CCNCC3)ccc2C1 (stereo not drawn) [Example 24] | 6.12 | 5.19
14 | N=C(N)c1ccc(COc2ccc3c(c2)CCN(CC(=O)O)C3)cc1 [Example 35] | 7.52 | 6.48
15 | N=C(N)c1ccc(C(=O)Nc2ccc3c(c2)CCN(CC(=O)O)C3=O)cc1 [Example 4, 6-[[(4-(Aminoiminomethyl)benzoy]amino]-3,4-dihydro-1-oxo-2(1H)-isoquinoline Acetic Acid Trifluoroacetate] | 8.48 | 7.00
16 | N=C(N)c1ccc(NC(=O)c2ccc3c(c2)CCC(OCC(=O)O)C3)cc1 (stereo not drawn) [Example 39] | 7.51 | 6.44
17 | N=C(N)c1ccc(C(=O)Nc2ccc3c(c2)CCC(CC(=O)O)C3=O)c(F)c1 (stereo not drawn) [Example 32] | 8.40 | 7.00
18 | CC1(CCC(=O)O)C=Cc2cc(OCc3ccc(C(=N)N)cc3)ccc2O1 (racemic) [Example 53, rac-3-(6-(4-(Aminoiminomethyl)phenylmethoxy)-2-methyl-2H-1-benzopyran-2-yl)propanoic Acid Hydrochloride] | 6.14 | 4.68
19 | CCOC(=O)CC1CCc2cc(NC(=O)c3ccc(C(=N)NC(=O)OC)cc3F)ccc2O1 (racemic) [Example 88, Ethyl rac-(3,4-Dihydro-6-(N-(2-fluoro-4-((methoxycarbonylamino)iminomethyl)benzoyl)amino)-2H-1-benzopyran-2-yl)acetate] | 7.00 | 7.08
20 | CCCCCCNC(=O)C(CC(=O)O)N1CCc2cc(OCc3ccc(C(=N)N)cc3)ccc2C1=O (racemic) [Example 5, (+−)-6-[[4-(Aminoiminomethyl)phenyl]methoxy]-3,4-dihydro-1-oxo-beta[hexylamino Carbonyl]-2(1H)-isoquinolone Propanoic Acid Trifluoroacetate] | 7.48 | 5.15
21 | N=C(N)c1cccc(C#Cc2ccc3c(c2)CCN(CC(=O)O)C3=O)c1 [Example 17, 6-[[3-(Aminoiminomethyl)phenyl]ethynyl]-3,4-dihydro-1-oxo-2(1H)-isoquinoline Acetic Acid Trifluoroacetate] | 4.35 | < 4.00
